Several values for one entry are separate records, joined by “and”; a condition that tells them apart may be missing. Equal values may be shown once. Read-outs that look alike come from different tables or passages of the source.
Assays:
[1] = target: protein kinases (human kinome) (Homo sapiens, UniProt Q00534); type: cell-based; conditions: for logFC CDK6: CDK6 (Q00534), direction down; for logFC of CDK6 (Q00534): down
[2] = target: extended human kinome (kinase-like proteins) (Homo sapiens, UniProt P27144); assay: Whole cell quantitative proteomics: extended kinome hits
[3] = target: T1, extended human kinome (kinase-like proteins) (Homo sapiens, UniProt Q53R41); assay: as above
T1 sequence (Q53R41 1-847): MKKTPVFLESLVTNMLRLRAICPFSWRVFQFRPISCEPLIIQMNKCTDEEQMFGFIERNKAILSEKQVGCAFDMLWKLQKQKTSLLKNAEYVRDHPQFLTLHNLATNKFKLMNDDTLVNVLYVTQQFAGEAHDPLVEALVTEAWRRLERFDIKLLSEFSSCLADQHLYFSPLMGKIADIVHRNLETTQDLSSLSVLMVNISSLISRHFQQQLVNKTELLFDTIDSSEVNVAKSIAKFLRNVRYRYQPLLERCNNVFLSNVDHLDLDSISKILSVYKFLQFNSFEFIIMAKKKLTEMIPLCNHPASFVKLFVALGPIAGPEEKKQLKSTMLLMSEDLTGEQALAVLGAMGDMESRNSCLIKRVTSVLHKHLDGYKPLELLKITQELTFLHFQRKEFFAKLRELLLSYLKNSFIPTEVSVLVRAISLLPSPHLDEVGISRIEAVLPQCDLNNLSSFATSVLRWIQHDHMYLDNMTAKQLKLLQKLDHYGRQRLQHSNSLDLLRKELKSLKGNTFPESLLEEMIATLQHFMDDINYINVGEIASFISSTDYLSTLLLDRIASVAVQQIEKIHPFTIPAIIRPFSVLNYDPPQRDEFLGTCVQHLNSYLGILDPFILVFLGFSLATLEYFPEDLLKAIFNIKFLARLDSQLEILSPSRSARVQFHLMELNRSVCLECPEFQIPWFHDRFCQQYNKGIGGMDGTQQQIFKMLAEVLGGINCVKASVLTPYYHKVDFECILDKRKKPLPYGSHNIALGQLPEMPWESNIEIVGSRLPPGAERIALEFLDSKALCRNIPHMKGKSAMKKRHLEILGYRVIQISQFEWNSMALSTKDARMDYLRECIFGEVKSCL

[4] = target: T2, protein kinases (human kinome) (Homo sapiens, UniProt O75385); type: cell-based; conditions: for logFC: ULK1 (O75385) protein abundance, degrader vs DMSO, down; for logFC ULK1: ULK1 O75385
T2 sequence (O75385 1-1050): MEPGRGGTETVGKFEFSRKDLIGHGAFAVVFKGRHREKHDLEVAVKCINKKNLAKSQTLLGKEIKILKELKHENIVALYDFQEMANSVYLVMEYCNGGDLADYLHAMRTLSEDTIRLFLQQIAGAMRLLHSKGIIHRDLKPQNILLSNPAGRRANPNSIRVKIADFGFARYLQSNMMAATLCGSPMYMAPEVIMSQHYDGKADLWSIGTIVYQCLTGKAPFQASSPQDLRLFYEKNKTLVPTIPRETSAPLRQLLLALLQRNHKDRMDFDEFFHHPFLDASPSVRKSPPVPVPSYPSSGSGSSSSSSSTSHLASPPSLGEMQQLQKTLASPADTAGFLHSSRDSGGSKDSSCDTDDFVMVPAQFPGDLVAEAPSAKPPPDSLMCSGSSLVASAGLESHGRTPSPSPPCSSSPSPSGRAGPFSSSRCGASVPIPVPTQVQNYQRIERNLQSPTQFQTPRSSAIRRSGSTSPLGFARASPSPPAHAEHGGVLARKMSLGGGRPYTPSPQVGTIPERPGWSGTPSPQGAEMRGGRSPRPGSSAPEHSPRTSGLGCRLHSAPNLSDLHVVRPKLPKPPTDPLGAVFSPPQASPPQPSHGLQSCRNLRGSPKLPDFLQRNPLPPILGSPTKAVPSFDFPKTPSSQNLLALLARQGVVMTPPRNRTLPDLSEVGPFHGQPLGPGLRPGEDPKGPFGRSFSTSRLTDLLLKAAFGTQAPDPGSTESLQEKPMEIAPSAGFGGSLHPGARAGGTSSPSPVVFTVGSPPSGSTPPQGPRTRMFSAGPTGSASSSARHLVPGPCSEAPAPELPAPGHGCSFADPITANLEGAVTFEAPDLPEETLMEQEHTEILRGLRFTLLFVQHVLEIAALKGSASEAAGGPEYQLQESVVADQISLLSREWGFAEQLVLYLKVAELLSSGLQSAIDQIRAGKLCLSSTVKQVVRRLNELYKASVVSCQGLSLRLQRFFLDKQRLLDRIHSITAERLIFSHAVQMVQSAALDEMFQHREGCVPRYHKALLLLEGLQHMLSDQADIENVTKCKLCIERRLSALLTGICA

[5] = target: protein kinases (human kinome) (Homo sapiens, UniProt P30291); type: cell-based; conditions: for logFC of WEE1: WEE1 P30291-1
[6] = target: protein kinases (human kinome) (Homo sapiens, UniProt P51451); type: cell-based; conditions: for logFC BLK: BLK (P51451), direction down; for logFC of BLK (P51451): down
Chain of protein kinases (human kinome) (Homo sapiens, UniProt P51451) (P51451 whole entry): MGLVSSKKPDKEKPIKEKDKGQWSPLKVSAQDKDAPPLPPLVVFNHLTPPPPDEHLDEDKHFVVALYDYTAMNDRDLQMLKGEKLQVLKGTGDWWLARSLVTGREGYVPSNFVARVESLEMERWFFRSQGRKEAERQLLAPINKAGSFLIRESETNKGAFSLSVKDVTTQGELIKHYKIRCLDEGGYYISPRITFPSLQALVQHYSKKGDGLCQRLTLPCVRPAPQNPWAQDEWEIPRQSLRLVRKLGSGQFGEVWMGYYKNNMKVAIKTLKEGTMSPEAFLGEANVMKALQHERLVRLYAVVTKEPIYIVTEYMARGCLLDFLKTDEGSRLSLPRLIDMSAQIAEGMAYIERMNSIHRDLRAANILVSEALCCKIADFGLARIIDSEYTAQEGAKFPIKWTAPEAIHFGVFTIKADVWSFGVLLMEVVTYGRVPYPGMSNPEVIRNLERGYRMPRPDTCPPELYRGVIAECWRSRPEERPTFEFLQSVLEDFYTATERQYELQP

Chain of protein kinases (human kinome) (Homo sapiens, UniProt P30291) (P30291 whole entry): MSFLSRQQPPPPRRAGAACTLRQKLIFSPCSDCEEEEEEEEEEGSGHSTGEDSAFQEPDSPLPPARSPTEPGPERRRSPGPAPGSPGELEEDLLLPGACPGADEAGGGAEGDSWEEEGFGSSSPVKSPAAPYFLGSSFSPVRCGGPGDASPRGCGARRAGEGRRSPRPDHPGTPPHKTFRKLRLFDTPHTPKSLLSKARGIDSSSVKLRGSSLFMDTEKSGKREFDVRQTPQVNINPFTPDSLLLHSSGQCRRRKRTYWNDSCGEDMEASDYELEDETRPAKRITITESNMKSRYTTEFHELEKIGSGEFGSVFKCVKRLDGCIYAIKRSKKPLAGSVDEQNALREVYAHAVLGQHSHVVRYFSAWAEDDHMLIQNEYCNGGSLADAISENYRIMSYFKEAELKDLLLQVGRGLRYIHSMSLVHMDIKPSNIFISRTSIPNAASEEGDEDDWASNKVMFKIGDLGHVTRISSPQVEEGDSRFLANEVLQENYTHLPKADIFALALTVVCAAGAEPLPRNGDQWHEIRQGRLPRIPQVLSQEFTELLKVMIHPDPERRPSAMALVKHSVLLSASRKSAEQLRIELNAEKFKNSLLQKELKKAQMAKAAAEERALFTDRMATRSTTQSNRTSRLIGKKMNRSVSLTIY
Chain of extended human kinome (kinase-like proteins) (Homo sapiens, UniProt P27144) (P27144 whole entry): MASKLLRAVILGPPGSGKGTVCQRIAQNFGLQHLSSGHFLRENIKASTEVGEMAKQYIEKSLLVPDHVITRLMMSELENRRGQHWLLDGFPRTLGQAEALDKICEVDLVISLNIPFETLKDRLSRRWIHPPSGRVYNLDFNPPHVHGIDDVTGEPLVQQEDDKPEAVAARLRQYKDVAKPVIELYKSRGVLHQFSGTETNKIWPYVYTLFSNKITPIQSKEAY
Chain of protein kinases (human kinome) (Homo sapiens, UniProt Q00534) (Q00534 whole entry): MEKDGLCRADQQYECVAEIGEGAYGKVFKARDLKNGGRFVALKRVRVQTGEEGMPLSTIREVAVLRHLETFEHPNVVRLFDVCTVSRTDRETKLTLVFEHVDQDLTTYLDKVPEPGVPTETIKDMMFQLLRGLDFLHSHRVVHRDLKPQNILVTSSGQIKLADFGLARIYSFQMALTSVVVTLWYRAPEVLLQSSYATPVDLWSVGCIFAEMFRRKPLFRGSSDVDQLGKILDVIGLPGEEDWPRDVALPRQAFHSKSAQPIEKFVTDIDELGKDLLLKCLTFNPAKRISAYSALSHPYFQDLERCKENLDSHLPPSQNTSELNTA

Compound: CN(C)C(=O)c1cc2cnc(Nc3ccc(N4CCN(CCCCNC(=O)COc5cccc6c5C(=O)N(C5CCC(=O)NC5=O)C6=O)CC4)cn3)nc2n1C1CCCC1 (stereo not drawn) [BSJ.04.132]
- logFC CDK6 ([1]; experiment wp084): −0.7531
- logFC of CDK6 (Q00534) ([1]; Experiment wp084): −0.7531
- logFC AK4 (P27144) ([2]; experiment wp084): −0.6551
- logFC FASTKD1 (Q53R41) ([3]; experiment wp084): −0.6747

Compound: CC(C)(C)c1nc(-c2cccc(NS(=O)(=O)c3c(F)cccc3F)c2F)c(-c2ccnc(NCCOCCNC(=O)CCOCCOCCNc3cccc4c3CN(C3CCC(=O)NC3=O)C4=O)n2)s1 (stereo not drawn) [DD.03.107]
- logFC AK4 (P27144) ([2]; experiment wp137): −0.3942
- logFC AK4 (P27144) ([2]; experiment wp147, 1 uM): −0.3992
- logFC AK4 (P27144) ([2]; experiment wp147, 2 uM): −0.4045
- logFC AK4 (P27144) ([2]; experiment wp147, 4 uM): −0.898
- logFC FASTKD1 (Q53R41) ([3]; experiment wp147, 1 uM): −0.58
- logFC FASTKD1 (Q53R41) ([3]; experiment wp147, 2 uM): −0.5044
- logFC FASTKD1 (Q53R41) ([3]; experiment wp147, 4 uM): −0.9447

Compound: O=C(COc1cccc2c1C(=O)N(C1CCC(=O)NC1=O)C2=O)NCCCCCCCC(=O)NC1(c2ccc(-c3nc4ccn5c(=O)[nH]nc5c4cc3-c3ccccc3)cc2)CCC1 (stereo not drawn) [INY.01.140.1]
- logFC AK4 (P27144) ([2]; experiment wp081): −0.4309
- logFC FASTKD1 (Q53R41) ([3]; experiment wp081): −0.4808

Compound: Cc1cnc(Nc2ccc(N3CCN(CCOCCOCCNC(=O)COc4cccc5c4C(=O)N(C4CCC(=O)NC4=O)C5=O)CC3)cc2)nc1Nc1cccc(S(=O)(=O)NC(C)(C)C)c1 (stereo not drawn) [JWG.118]
- logFC AK4 (P27144) ([2]; experiment wp071): −0.5314

Compound: CS(=O)(=O)Nc1cccc(-c2csc3cnc(Nc4ccc(N5CCN(CCOCCOCCOc6cccc7c6C(=O)N(C6CCC(=O)NC6=O)C7=O)CC5)cc4)nc23)c1 (stereo not drawn) [RSS0628]
- logFC [4]: −0.5583
- logFC ULK1 ([4]; experiment wp045): −0.5583
- logFC WEE1 (P30291-1) ([5]; experiment wp045): −1.578
- logFC CDK6 ([1]; experiment wp045): −1.743
- logFC of CDK6 (Q00534) ([1]; Experiment wp045): −1.743

Compound: Cc1ncsc1-c1ccc([C@H](C)NC(=O)[C@@H]2C[C@@H](O)CN2C(=O)[C@@H](NC(=O)CCCCCN2CCN(c3ccc(Nc4ncc5scc(-c6cccc(NS(C)(=O)=O)c6)c5n4)cc3)CC2)C(C)(C)C)cc1 [RSS0680, (2S,4R)-1-((S)-3,3-Dimethyl-2-(6-(4-(4-((7-(3-(methylsulfonamido)phenyl)thieno[3,2-d]pyrimidin-2-yl)amino)phenyl)piperazin-1-yl)hexanamido)butanoyl)-4-hydroxy-N—((S)-1-(4-(4-methylthiazol-5yl)phenyl)ethyl)pyrrolidine-2-carboxamide]
- logFC [4]: −0.4057 and −0.4996
- logFC ULK1 ([4]; experiment wp080): −0.4057
- logFC ULK1 ([4]; experiment wp117): −0.4996
- logFC of WEE1 ([5]; experiment wp080): −2.359
- logFC of WEE1 ([5]; experiment wp117): −1.85
- logFC WEE1 (P30291-1) ([5]; experiment wp080): −2.359
- logFC WEE1 (P30291-1) ([5]; experiment wp117): −1.85
- logFC CDK6 ([1]; experiment wp080): −2.17
- logFC CDK6 ([1]; experiment wp117): −2.169
- logFC of CDK6 (Q00534) ([1]; Experiment wp080): −2.17
- logFC of CDK6 (Q00534) ([1]; Experiment wp117): −2.169

Compound: Cn1c(=O)c(-c2c(Cl)cccc2Cl)cc2cnc(Nc3ccc(OCCNC(=O)CCCCCCNC(=O)COc4cccc5c4C(=O)N(C4CCC(=O)NC4=O)C5=O)cc3)nc21 (stereo not drawn) [SB1.G.192.1]
- logFC of WEE1 ([5]; experiment wp081): −1.764
- logFC of WEE1 ([5]; experiment wp131): −1.647
- logFC WEE1 (P30291-1) ([5]; experiment wp071): −2.367
- logFC WEE1 (P30291-1) ([5]; experiment wp081): −1.764
- logFC WEE1 (P30291-1) ([5]; experiment wp131): −1.647
- logFC BLK ([6]; experiment wp071): −2.399
- logFC BLK ([6]; experiment wp081): −2.013
- logFC BLK ([6]; experiment wp131): −2.465
- logFC of BLK (P51451) ([6]; Experiment wp071): −2.399
- logFC of BLK (P51451) ([6]; Experiment wp081): −2.013
- logFC of BLK (P51451) ([6]; Experiment wp131): −2.465
- logFC FASTKD1 (Q53R41) ([3]; experiment wp081): −0.4222

Compound: CC(C)S(=O)(=O)c1ccccc1Nc1nc(Nc2ccc(N3CCN(CCOCCOCCNC(=O)CNc4cccc5c4C(=O)N(C4CCC(=O)NC4=O)C5=O)CC3)cc2)ncc1Cl (stereo not drawn) [TL12.186]
- logFC ULK1 ([4]; experiment wp131): −3.01
- logFC ULK1 ([4]; experiment wp137): −2.237
- logFC of WEE1 ([5]; experiment wp137): −2.511
- logFC WEE1 (P30291-1) ([5]; experiment wp016): −1.514
- logFC WEE1 (P30291-1) ([5]; experiment wp131): −2.574
- logFC WEE1 (P30291-1) ([5]; experiment wp137): −2.511
- logFC BLK ([6]; experiment wp131): −2.497
- logFC BLK ([6]; experiment wp137): −2.115
- logFC of BLK ([6]; BLK P51451, experiment wp016): −1.475
- logFC of BLK (P51451) ([6]; Experiment wp016): −1.475
- logFC of BLK (P51451) ([6]; Experiment wp131): −2.497
- logFC of BLK (P51451) ([6]; Experiment wp137): −2.115
- logFC CDK6 ([1]; experiment wp016): −0.5831
- logFC CDK6 ([1]; experiment wp131): −0.9892
- logFC CDK6 ([1]; experiment wp137): −0.8724
- logFC of CDK6 (Q00534) ([1]; Experiment wp016): −0.5831
- logFC of CDK6 (Q00534) ([1]; Experiment wp131): −0.9892
- logFC of CDK6 (Q00534) ([1]; Experiment wp137): −0.8724
- logFC FASTKD1 (Q53R41) ([3]; experiment wp137): −0.3731

Compound: CC(C)S(=O)(=O)c1ccccc1Nc1nc(Nc2ccc(N3CCN(CCOCCOCCC(=O)NCCNc4cccc5c4CN(C4CCC(=O)NC4=O)C5=O)CC3)cc2)ncc1Cl (stereo not drawn) [TL13.97]
- logFC [4]: −1.877
- logFC ULK1 ([4]; experiment wp137): −1.877
- logFC of WEE1 ([5]; experiment wp137): −1.585
- logFC WEE1 (P30291-1) ([5]; experiment wp137): −1.585
- logFC BLK ([6]; experiment wp137): −2.219
- logFC of BLK (P51451) ([6]; Experiment wp137): −2.219
- logFC CDK6 ([1]; experiment wp137): −0.5967
- logFC of CDK6 (Q00534) ([1]; Experiment wp137): −0.5967
- logFC FASTKD1 (Q53R41) ([3]; experiment wp137): −0.3684

Compound: C=CCn1c(=O)c2cnc(Nc3ccc(N4CCN(CCCNc5cccc6c5C(=O)N(C5CCC(=O)NC5=O)C6=O)CC4)cc3)nc2n1-c1cccc(C(C)(C)O)n1 (stereo not drawn) [ZNL.02.096]
- logFC of WEE1 ([5]; experiment wp081): −1.97
- logFC of WEE1 ([5]; experiment wp106, 2 hr): −2.525
- logFC of WEE1 ([5]; experiment wp106, 4 hr): −2.764
- logFC of WEE1 ([5]; experiment wp118): −2.75
- logFC WEE1 (P30291-1) ([5]; experiment wp056): −2.409
- logFC WEE1 (P30291-1) ([5]; experiment wp081): −1.97
- logFC WEE1 (P30291-1) ([5]; experiment wp106, 2 hr): −2.525
- logFC WEE1 (P30291-1) ([5]; experiment wp106, 4 hr): −2.764
- logFC WEE1 (P30291-1) ([5]; experiment wp118): −2.75
- logFC FASTKD1 (Q53R41) ([3]; experiment wp056): −0.4079
- logFC FASTKD1 (Q53R41) ([3]; experiment wp118): −0.4559

— US20240269139A1, “COMPOUNDS FOR TARGETED PROTEIN DEGRADATION OF KINASES” (DANA-FARBER CANCER INSTITUTE, INC., priority 2020, published 2024)
